The record followed here is paper PMC5609566, “Elucidation of antimicrobial activity and mechanism of action by N-substituted carbazole derivatives” (Bioorganic & Medicinal Chemistry Letters, 2017).

Test [1] addresses T1, S. cerevisiae H^+-ATPase (Saccharomyces cerevisiae, UniProt P05030).
T1 construct: transformed with the full-length cDNA of the S. cerevisiae plasma membrane H^+-ATPase isoform PMA1; made in house; host or cells: S. cerevisiae RS72
Description: Colorimetric ATPase assay (ATP hydrolysis), S. cerevisiae plasma membranes. The test is classed as biochemical. To be noted: initial hit compounds, Table 1. The text has this:
To investigate the H^+-ATPase inhibitory effect of the compounds we isolated plasma membranes containing H^+-ATPase from S. cerevisiae and C. albicans cells.[15] Plasma membranes isolated from pig kidney as well as endoplasmic reticulum membranes from rabbit hind leg muscle were used to counter-screen compounds for activity against mammalian Na^+,K^+-ATPase and Ca^2+-ATPase, respectively. Prior to their use, fungal plasma membrane batches were validated by determining the maximum ATP hydrolysis activity, the pH optimum of the ATPase activity, and the sensitivity to inhibition by orthovanadate. ATPase activity was determined by a colorimetric assay that measures the amount of inorganic phosphate liberated over time, as described in Kjellerup et al., 2017.[15] Table 2, Table 3, Table 4 list the IC50 values obtained by measuring the concentration dependence of the ATPase activity for the fifteen carbazole compounds with each of the four membrane preparations.
Pma1-containing plasma membranes were prepared from S. cerevisiae RS72 yeast cells that had been transformed with the full-length cDNA of the S. cerevisiae plasma membrane H^+-ATPase isoform PMA1 under control of the PMA1 promoter, using the same procedure as described in Kongstad et al., 2014^1. For the preparation of C. albicans membranes, a 100 ml overnight culture grown in YPD (10 g/L yeast extract (BD, Sparks, MD), 20 g/L Bacto peptone (BD), 20 g/L D-(+)-glucose) was transferred to 1 L YPD and grown for a further 7 h at RT with agitation (150 rpm), followed by cell harvesting and subsequent membrane preparation using the same procedure as described in Kongstad et al., 2014^1. […] Rabbit sarcoplasmic reticulum membranes containing Sarco/Endoplasmic Reticulum Ca^2+ ATPase (SERCA) were kindly provided by Dr. Claus E. Olesen and Dr. Jesper V. Møller, Aarhus University and prepared as described in Andersen et al., 1985^2. Pig kidney Na^+,K^+-ATPase was kindly provided by Dr. Natalya Fedosova, Aarhus University and prepared as described in Klodos et al., 2002^3.
The compound libraries were purchased from Enamine Ltd, Ukraine and Chembridge Corp, USA. ATPase activity was determined by measuring the amount of liberated phosphate from ATP hydrolysis. […] Reactions were initiated by the addition of Na-ATP to a final concentration of 2.5 mM (Pma1 and Na^+,K^+-ATPase) or 5 mM (SERCA), followed by 30 minutes incubation at 30 °C. The amount of liberated phosphate was determined colorimetrically after addition of STOP solution (mixture of L-ascorbic acid, ammonium heptamolybdate tetrahydrate, and HCl to give final concentrations of 65 mM, 2.2 mM, and 189 mM, respectively) with 5 minutes incubation at room temperature (RT) followed by addition of arsenite solution (mixture of NaAsO2, sodium citrate dihydrate, and acetic acid to give final concentrations of 3.1 mM, 28 mM, and 141 mM, respectively). Absorption was measured at 860 nm after an additional 30 minutes incubation at RT.

In test [2] the test system is S. cerevisiae. In words: Fungal growth inhibition, library hits. In kind it is cell-based. To be noted: Saccharomyces cerevisiae, baker yeast. The procedure:
(§1) Compound hits from the library screening were evaluated against baker yeast S. cerevisiae and C. albicans (ATCC 90028). The minimum inhibitory concentration (MIC) was defined as the lowest concentration inhibiting visual growth of the microorganism and this was determined in triplicate. Standard errors were typically less than 5%. MICs for synthesized compounds were determined on the following fungal isolates: Saccharomyces cerevisiae (ATCC 9763), Candida albicans (SC5314), Candida krusei (ATCC 6258), Candida glabrata (ATCC 90030), Aspergillus flavus (ATCC MYA-1005) and Aspergillus fumigatus (ATCC 13073), which were purchased from American Type Culture Collection, and C. glabrata strain Cg003, which was kindly provided by Julius Subik, Comenius University in Bratislava, Slovak Republic. Cg003 is a clinical isolate, characterized to be resistant to fluconazole and itraconazole due to overexpression of the multidrug resistance efflux pumps Cdr1p and Cdr2p^5. The fungal growth assay was performed as described in Kjellerup et al., 2017^6.

The subject of test [3] is C. albicans (ATCC 90028). Description: Fungal growth inhibition, library hits. The test is classed as cell-based. The procedure: as §1
For test [4], the system named is C. albicans cells. In words: Intracellular ATP determination. In kind it is cell-based. As to conditions: compound at 20 µM, 30 minutes, mean ± SEM n = 5. An excerpt: (§2) It was subsequently evaluated whether or not the carbazoles were able to prevent extracellular acidification of the surrounding media by blocking the pumping activity of the H^+-ATPase within fungal cells.[15] […] The H^+-ATPase requires ATP to transport protons out of fungal cells. Consequently, a decrease in intracellular ATP (iATP) levels will indirectly affect H^+-ATPase activity. […] In all cases, iATP levels were […] in C. albicans cells exposed to carbazoles compared to the untreated control. […] This implies that the carbazoles need to pass the fungal membrane to inhibit the H^+-ATPase and 7, 18 and 19 may have reduced membrane permeability.
C. albicans cells were transferred to 3 ml of YPD media and grown overnight at 30 °C and 150 rpm. The cells were pelleted at 2000 × g for 2 min. and washed in PBS (Sigma-Aldrich, catalog number 8537) twice before re-suspension to an OD600 of 0.1. Cell suspension (98 µL) and 2 µl compound in DMSO were incubated for 30 minutes at RT. Forty microliters of this suspension was then transferred to a black 96-well plate containing 40 µl BacTiterGlo reagent (Promega, Madison, WI) and the plate was incubated for 15 minutes in the dark at room temperature. Luminescence was read on a SpectraMax X5 (Molecular Devices, Sunnyvale, CA) plate reader with 10 s shake and 0.5 s integration time. A standard curve containing 10, 100 and 1000 nM ATP was prepared for every experiment.

Test [5] has as its system C. albicans. Description: Extracellular acidification assay. In kind it is cell-based. As to conditions: Candida albicans, mean ± SEM n = 3.
From the text: as §2
(§3) The ability of S. cerevisiae and C. albicans to acidify the media upon glucose addition was evaluated using the pH sensor dextran (40,000MW)-fluorescein-isothiocyanate as described in Kjellerup et al., 2017^6. Briefly, the cells was starved overnight in 50 mM KCl, pH 6.7 at 4 °C. The cell suspension (Final OD600 of 0.19) was mixed with 1.3 µg/ml dextran (40,000MW)-fluorescein-isothiocyanate, 1.5 % DMSO containing inhibitors and the assay initiated with the addition of 2 % D-(+)-glucose. The rate of media acidification was calculated based on the slope of the fluorescent drop in the first 12 minutes after glucose addition.

For test [6], the system named is S. cerevisiae. In words: Extracellular acidification assay. As to conditions: Saccharomyces cerevisiae, mean ± SEM n = 3. The test is classed as cell-based.
From the text: as §2, §3

≈ marks a conversion by molar mass, not a printed value.

T1 sequence (P05030 whole entry, canonical isoform): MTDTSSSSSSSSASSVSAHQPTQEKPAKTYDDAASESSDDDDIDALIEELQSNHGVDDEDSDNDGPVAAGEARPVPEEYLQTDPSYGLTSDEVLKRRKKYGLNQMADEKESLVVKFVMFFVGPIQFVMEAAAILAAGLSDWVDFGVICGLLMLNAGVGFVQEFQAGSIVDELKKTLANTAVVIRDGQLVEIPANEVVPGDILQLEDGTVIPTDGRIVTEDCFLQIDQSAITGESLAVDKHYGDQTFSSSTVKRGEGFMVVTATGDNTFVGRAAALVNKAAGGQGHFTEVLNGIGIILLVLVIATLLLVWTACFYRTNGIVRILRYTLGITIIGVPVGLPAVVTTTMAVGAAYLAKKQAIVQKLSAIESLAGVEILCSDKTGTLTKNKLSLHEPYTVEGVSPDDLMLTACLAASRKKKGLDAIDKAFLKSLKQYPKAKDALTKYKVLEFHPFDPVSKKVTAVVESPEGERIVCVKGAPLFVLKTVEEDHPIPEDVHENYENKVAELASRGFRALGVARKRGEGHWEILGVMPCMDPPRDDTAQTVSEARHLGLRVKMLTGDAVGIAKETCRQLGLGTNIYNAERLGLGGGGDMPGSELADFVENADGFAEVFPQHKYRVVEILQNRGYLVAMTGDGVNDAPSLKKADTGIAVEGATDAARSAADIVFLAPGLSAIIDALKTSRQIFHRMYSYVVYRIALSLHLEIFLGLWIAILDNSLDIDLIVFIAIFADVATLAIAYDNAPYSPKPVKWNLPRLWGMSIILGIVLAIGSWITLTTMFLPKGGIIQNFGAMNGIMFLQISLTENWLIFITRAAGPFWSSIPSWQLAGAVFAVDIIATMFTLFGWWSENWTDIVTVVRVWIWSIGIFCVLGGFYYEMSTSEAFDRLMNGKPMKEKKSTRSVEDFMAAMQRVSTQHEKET

In test [1], `OC(CN1CCCCCC1)Cn1c2ccccc2c2ccccc21` (stereo not shown) [Compound 1] came in with an IC50 of 18.8 ± 7.3 µM. In addition, the MIC in test [2] is > 200 µM; in test [3] (ATCC 90028, library hits), >200 µM.

`CC(C)CCOCC(O)Cn1c2ccccc2c2ccccc21` (stereo not shown) [Compound 2] showed an IC50 in test [1] of 5.5 ± 0.7 µM. Also, the MIC in test [2] was 50 µM (≈ 15.6 µg/mL); in test [3] (ATCC 90028, library hits) it was >200 µM.

For the compound `Oc1ccccc1Cn1c2ccccc2c2ccccc21` [Compound 3], in test [1], inhibition was half-maximal at 9.7 ± 0.6 µM (IC50). Moreover, the MIC in test [2] came out at 50 µM (≈ 13.7 µg/mL); in test [3] (ATCC 90028, library hits), 100 µM (≈ 27.3 µg/mL).

`OC(CN1CCCC1)Cn1c2ccc(Cl)cc2c2cc(Cl)ccc21` (stereo not shown) [Compound 4]: in test [1], the IC50 was determined as 17.3 ± 5.5 µM. The MIC in test [2] was 10 µM (≈ 3.63 µg/mL); in test [3] (ATCC 90028, library hits), 30 µM (≈ 10.9 µg/mL); in test [3] (Candida albicans, ATCC90028, ATCC 90028, library hits) it was ≥ 30 µM.

With `C[C@@H](c1ncncc1F)[C@](O)(Cn1cncn1)c1ccc(F)cc1F` [Voriconazole, reference compound], the iATP in test [4] is 37 ± 19 nM. For the same compound, the IC50 in test [5] and in test [6] was > 75 µM in each case.
